Laboratory results taken from ChEMBL document CHEMBL5154650, “Identification and optimization of biphenyl derivatives as novel tubulin inhibitors targeting colchicine-binding site overcoming multidrug resistance” (Eur J Med Chem, 2022).
Activity calls are given as the source filed them. The calls are words filed in the database; no cut-off is given here.

What was measured:
A549 [1] = test: Antiproliferative activity against human A549 cells measured after 72 hrs by SRB assay; type: functional, cell-based
KB = test: Antiproliferative activity against human KB cells measured after 72 hrs by SRB assay; type: functional, cell-based
[2] = Antiproliferative activity against human KB/VCR cells measured after 72 hrs by SRB assay; type: functional, cell-based
[3] = Resistant index, ratio IC50 for KB/VCR cells over IC50 for KB cells; type: functional
KB-V1 = test: Antiproliferative activity against human KB-V1 cells measured after 72 hrs by SRB assay; type: functional, cell-based; details: KB-V1, 72 h
[4] = Resistant index, ratio IC50 for KB-V1 cells over IC50 for KB cells; type: functional
K562 = test: Antiproliferative activity against human K562 cells measured after 72 hrs by SRB assay; type: functional, cell-based; details: K562, 72 h
K562/Adr = test: Antiproliferative activity against human K562/Adr cells measured after 72 hrs by SRB assay; type: functional, cell-based
[5] = Resistant index, ratio IC50 for K562/Adr cells over IC50 for K562 cells; type: functional
[6] = Metabolic stability in human liver microsomes assessed as intrinsic clearance at 1 uM in presence of NADPH measured by LC-MS/MS analysis; type: ADME, Microsome
Tubulin (Homo sapiens) [7] = target: T1, Tubulin (Homo sapiens) (UniProt P68371+Q9H4B7+P0DPH7+P68366+Q13509+Q71U36+P04350+Q3ZCM7+P07437+P68363+Q9BQE3+Q6PEY2+Q13885+Q9BVA1+Q9BUF5); test: Inhibition of tubulin (unknown origin) polymerization incubated for 15 mins at 30 uM relative to control; type: protein-complex assay
Tubulin (Homo sapiens) [8] = target: T1, Tubulin (Homo sapiens); test: Inhibition of tubulin polymerization in human A549 cells assessed as disruption of microtubule network at 50 nM measured by DAPI staining method; type: cell-based
KB/VCR = test: Antiproliferative activity against human KB/VCR cells at 0.3 to 30 nM measured in presence of 10 uM verapamil after 72 hrs by SRB assay; type: functional, cell-based; details: dose 0.3-30 nM
4T1 [9] = test: Antitumor activity against mouse 4T1 cells xenografted in female BALB/c mouse assessed as T/C at 10 mg/kg, ip administered every other day for 14 days; type: functional; details: time 14 day
Tubulin (Homo sapiens) [10] = target: T1, Tubulin (Homo sapiens); test: Inhibition of tubulin polymerization in human A549 cells assessed as disruption of microtubule network at 200 nM measured by DAPI staining method; type: cell-based
A549 [11] = test: Induction of cell cycle arrest in human A549 cells assessed as accumulation at G2/M phase at 200 nM measured propidium iodide based flow cytometry analysis; type: functional
4T1 [12] = test: Antitumor activity against mouse 4T1 cells xenografted in female BALB/c mouse assessed as T/C at 25 mg/kg, ip administered every other day for 14 days; type: functional; details: time 14 day
A549 [13] = test: Induction of cell morphological changes in human A549 cells at 400 nM measured after 24 hrs; type: functional, cell-based
A549 [14] = test: Induction of cell cycle arrest in human A549 cells assessed as accumulation at G2/M phase at 400 nM measured after 24 hrs by propidium iodide based flow cytometry analysis; type: functional
Tubulin (Homo sapiens) [15] = target: T1, Tubulin (Homo sapiens); test: Inhibition of tubulin polymerization in human A549 cells at 3 to 100 uM; type: cell-based; details: dose 3-100 µM
Tubulin (Homo sapiens) [16] = target: T1, Tubulin (Homo sapiens); test: Inhibition of tubulin polymerization in human A549 cells assessed as disruption of microtubule network at 200 nM measured after 24 hrs by DAPI staining method; type: cell-based

COc1ccccc1-c1ccc(C(=O)c2ccccc2)cc1
IC50 (A549 [1]; Homo sapiens, A549, 72 h): 2910 nM

COc1cc(C#N)cc(-c2ccc(S(=O)(=O)c3ccccc3)cc2)c1
IC50 (A549 [1]; Homo sapiens, A549, 72 h): > 10000 nM

COc1cc(C#N)cc(-c2ccc(C(=O)c3cccc(O)c3)cc2)c1
IC50 (A549 [1]; Homo sapiens, A549, 72 h): 78 nM

COc1cc(C#N)cc(-c2ccc(C(=O)c3ccc(O)cc3)cc2)c1
IC50 (A549 [1]; Homo sapiens, A549, 72 h): > 10000 nM

COc1cc(OC)c(-c2ccc(C(=O)c3ccccc3)cc2)c(OC)c1
IC50 (A549 [1]; Homo sapiens, A549, 72 h): > 10000 nM

COc1cc(C#N)cc(-c2cc(OC)c(C(=O)c3ccccc3)cc2OC)c1
IC50 (A549 [1]; Homo sapiens, A549, 72 h): > 10000 nM

COc1cc(OC)c(-c2ccc(C(=O)c3ccccc3)cc2)cc1OC
IC50 (A549 [1]; Homo sapiens, A549, 72 h): > 10000 nM

COc1cc2c(c(OC)c1OC)-c1ccc(OC)c(=O)cc1[C@@H](NC(C)=O)CC2 [COLCHICINE]
IC50 (KB): 18.2 nM
IC50 [2]: 294 nM
Ratio IC50 [3]: 16.1
IC50 (KB-V1): 1340 nM
Ratio IC50 [4]: 73.5
IC50 (K562): 102 nM
IC50 (K562/Adr): 6550 nM
Ratio IC50 [5]: 64.4
CLH [6]: 0.384 mL/min/g

COc1cc(C#N)cc(-c2ccc(C(=O)c3ccccc3)c(NC(C)=O)c2)c1
IC50 (A549 [1]; Homo sapiens, A549, 72 h): 1030 nM

COc1cc(OC)cc(C(=O)c2ccc(-c3cc(C#N)cc(OC)c3)cc2)c1
IC50 (A549 [1]; Homo sapiens, A549, 72 h): 72 nM

COc1cc(C#N)cc(-c2ccc(C(=O)c3ccc(Cl)cc3)cc2)c1
IC50 (A549 [1]; Homo sapiens, A549, 72 h): 1070 nM

COc1cc(C#N)cc(-c2ccc(C(=O)c3ccnc(OC)c3)cc2)c1
IC50 (A549 [1]; Homo sapiens, A549, 72 h): 322 nM

COc1cc(C#N)cc(-c2ccc(C(=O)c3ccccc3N)cc2)c1
IC50 (A549 [1]; Homo sapiens, A549, 72 h): 1390 nM

COc1cccc2c1C(=O)c1c(O)c3c(c(O)c1C2=O)C[C@@](O)(C(=O)CO)C[C@@H]3O[C@H]1C[C@H](N)[C@H](O)[C@H](C)O1.Cl [DOXORUBICIN HYDROCHLORIDE]
IC50 (K562): 108 nM
IC50 (K562/Adr): 31200 nM
Ratio IC50 [5]: 287.7

COc1cccc(-c2ccc(C(=O)c3ccccc3)cc2)c1
IC50 (A549 [1]; Homo sapiens, A549, 72 h): 932 nM

COc1cc(C#N)cc(-c2ccc(C(=O)c3ccccc3)c(N)c2)c1 [listing 1 of 2 here]
IC50 (A549 [1]; a549): 6 nM

COc1cc(C#N)cc(-c2ccc(C(=O)c3ccccc3)c(O)c2)c1
IC50 (A549 [1]; Homo sapiens, A549, 72 h): 114 nM

O=C(c1ccccc1)c1ccc(-c2cccc(Cl)c2)cc1
IC50 (A549 [1]; Homo sapiens, A549, 72 h): 1870 nM

COc1cc(OC)cc(-c2ccc(C(=O)c3ccccc3)c(N)c2)c1
IC50 (A549 [1]; Homo sapiens, A549, 72 h): 49 nM

COc1cc(OC)c(OC)c(-c2ccc(C(=O)c3ccccc3)cc2)c1
IC50 (A549 [1]; Homo sapiens, A549, 72 h): > 10000 nM

Nc1c(F)cc(Cl)cc1-c1ccc(C(=O)c2ccccc2)cc1
IC50 (A549 [1]; Homo sapiens, A549, 72 h): > 10000 nM

O=C(c1ccccc1)c1ccc(-c2cc(C(F)(F)F)cc(C(F)(F)F)c2)cc1
IC50 (A549 [1]; Homo sapiens, A549, 72 h): > 10000 nM

N#Cc1ccc(-c2ccc(C(F)(F)F)cc2)cc1
IC50 (A549 [1]; Homo sapiens, A549, 72 h): 5900 nM

COc1cc(C#N)cc(-c2ccc(C(=O)c3ccccc3)c(N)c2)c1 [listing 2 of 2 here]
inhibition (Tubulin (Homo sapiens) [7]): 75%
inhibition (Tubulin (Homo sapiens) [8]): Active
Activity (KB/VCR): Active

COc1cc(-c2ccc(C(=O)c3ccccc3)cc2)cc(OC)c1OC
IC50 (A549 [1]; Homo sapiens, A549, 72 h): > 10000 nM

O=C(c1ccccc1)c1ccc(-c2ccccc2)cc1
IC50 (A549 [1]; Homo sapiens, A549, 72 h): > 10000 nM

CC(=O)O[C@H]1C(=O)[C@@]2(C)[C@H]([C@H](OC(=O)c3ccccc3)[C@]3(O)C[C@H](OC(=O)[C@H](O)[C@@H](NC(=O)c4ccccc4)c4ccccc4)C(C)=C1C3(C)C)[C@]1(OC(C)=O)CO[C@@H]1C[C@@H]2O [PACLITAXEL]
T/C (4T1 [9]): 49.2%

COc1cc(C#N)cc(-c2ccc(C(=O)c3cccc(Cl)c3)cc2)c1
IC50 (A549 [1]; Homo sapiens, A549, 72 h): 121 nM

CC[C@]1(O)C[C@H]2CN(CCc3c([nH]c4ccccc34)[C@@](C(=O)OC)(c3cc4c(cc3OC)N(C=O)[C@H]3[C@@](O)(C(=O)OC)[C@H](OC(C)=O)[C@]5(CC)C=CCN6CC[C@]43[C@@H]65)C2)C1 [VINCRISTINE]
IC50 (KB): 6.7 nM
IC50 [2]: 2010 nM
Ratio IC50 [3]: 301
IC50 (KB-V1): 8570 nM
Ratio IC50 [4]: 1282.2

CCOc1cccc(-c2ccc(C(=O)c3ccccc3)cc2)c1
IC50 (A549 [1]; Homo sapiens, A549, 72 h): 1580 nM

COc1ccc(C(=O)c2ccc(-c3cc(C#N)cc(OC)c3)cc2)cc1
IC50 (A549 [1]; Homo sapiens, A549, 72 h): > 10000 nM

COc1cc(C#N)cc(-c2ccc(C(=O)c3ccccc3O)cc2)c1
IC50 (A549 [1]; Homo sapiens, A549, 72 h): 135 nM

COc1cc(C#N)cc(-c2ccc(C(=O)c3ccco3)cc2)c1
IC50 (A549 [1]; Homo sapiens, A549, 72 h): > 10000 nM

COc1cc(C#N)cc(-c2ccc(C(=O)c3ccccc3)cc2)c1
IC50 (A549 [1]; Homo sapiens, A549, 72 h): 62 nM
inhibition (Tubulin (Homo sapiens) [7]): 36.1%
inhibition (Tubulin (Homo sapiens) [10]): Active
Activity (A549 [11]): 90%
IC50 (KB): 37.2 nM
IC50 [2]: 30.4 nM
Ratio IC50 [3]: 0.8
IC50 (KB-V1): 36.1 nM
Ratio IC50 [4]: 1
IC50 (K562): 144 nM
IC50 (K562/Adr): 226 nM
Ratio IC50 [5]: 1.6
T/C (4T1 [12]): 47.2%

COc1ccc(-c2ccc(C(=O)c3ccccc3)cc2)cc1
IC50 (A549 [1]; Homo sapiens, A549, 72 h): > 10000 nM

COc1cccc(C(=O)c2ccc(-c3cc(OC)cc(OC)c3)cc2N)c1
IC50 (A549 [1]; Homo sapiens, A549, 72 h): 17 nM

O=C(c1ccccc1)c1ccc(-c2cccc(C(F)(F)F)c2)cc1
IC50 (A549 [1]; Homo sapiens, A549, 72 h): 6540 nM

COc1cc(C#N)cc(-c2ccc(Cc3ccccc3)cc2)c1
IC50 (A549 [1]; Homo sapiens, A549, 72 h): > 10000 nM

COc1cc(C#N)cc(-c2ccc(C(=O)c3cccs3)cc2)c1
IC50 (A549 [1]; Homo sapiens, A549, 72 h): 1190 nM

COc1cc(C#N)cc(-c2ccc(C(=O)c3ccccn3)cc2)c1
IC50 (A549 [1]; Homo sapiens, A549, 72 h): 1640 nM

COc1cccc(C(=O)c2ccc(-c3cc(C#N)cc(OC)c3)cc2)c1
IC50 (A549 [1]; Homo sapiens, A549, 72 h): 54 nM

COc1cc(C#N)cc(-c2ccc(C(O)c3ccccc3)cc2)c1 (stereo unspecified)
IC50 (A549 [1]; Homo sapiens, A549, 72 h): 770 nM

COc1cc(OC)cc(-c2ccc(C(=O)c3ccccc3)cc2)c1
IC50 (A549 [1]; Homo sapiens, A549, 72 h): 94 nM
Activity (A549 [13]): Active
Activity (A549 [14]): Active
inhibition (Tubulin (Homo sapiens) [15]): Active
inhibition (Tubulin (Homo sapiens) [16]): Active
inhibition (Tubulin (Homo sapiens) [7]): 23.9%
IC50 (KB): 52.7 nM
IC50 [2]: 42.5 nM
Ratio IC50 [3]: 0.8
IC50 (KB-V1): 51.7 nM
Ratio IC50 [4]: 1
IC50 (K562): 137 nM
IC50 (K562/Adr): 305 nM

COc1cc(C#N)cc(-c2ccc(C(=O)c3ccccc3Cl)cc2)c1
IC50 (A549 [1]; Homo sapiens, A549, 72 h): 306 nM

N#Cc1cccc(-c2ccc(C(=O)c3ccccc3)cc2)c1
IC50 (A549 [1]; Homo sapiens, A549, 72 h): 787 nM

COc1cc(C#N)cc(-c2ccc(C(=O)c3ccccc3)cc2F)c1
IC50 (A549 [1]; Homo sapiens, A549, 72 h): 3890 nM
